According to patent publication US20250009819A1, “NOVEL PROBIOTICS AND USE THEREOF” (PBLBIOLAB CO., LTD., priority 2021, published 2025):

Tests used:
Assay type in all cases: in vivo, C57BL/6 male mice
[1] = system: immunosuppressed animals induced by anticancer drug (cyclophosphamide); test: Immunosuppressed animals induced by cyclophosphamide: colitis improvement (colon); settings: cyclophosphamide (CP)-treated mice, 1×10^9 CFU/mouse orally once a day for 5 days
Method: (§1) To 100 mg of colon tissue, 200 μl of 10 mM potassium phosphate buffer (pH 7.0) containing 0.5% hexadecyl trimethyl ammonium bromide was added and homogenized. Then, the supernatant was obtained by centrifugation for 10 minutes at 4° C. and 10,000 g. A volume of 50 μl of the supernatant was added to 0.95 mk of reaction solution (containing 1.6 mM tetramethyl benzidine and 0.1 mM H2O2), reacted at 37° C., and absorbance was monitored over time at 650 nm.
(§2) Hippocampus, colon, and spleen tissues were homogenized by adding 1 ml of RIPA buffer (Gibco) containing protease inhibitor cocktail and centrifuged at 4° C., 13000 rpm for 15 min to obtain supernatant. Indicators of this supernatant were measured using an ELISA kit (Ebioscience).
C57BL/6 male mice (5 weeks old, 19-21 g) were divided (6 mice in each group) and acclimatized to the laboratory for 1 week. To induce intestinal and brain diseases, the mice were administered with cyclophosphamide (CP, 150 mg/kg, dissolved in physiological saline) for 1 day, rested for 1 day, and then administered intraperitoneally the next day. Meanwhile, the normal group was administered intraperitoneally with 0.1 ml of physiological saline. […] The day following the conclusion of sample administration, the experimental animals were sacrificed, and samples from the brain hippocampus, colon, and spleen were collected. In the Hippocampus, inflammatory indicators, such as IFN-γ, TNF-α, and IL-10, were measured using ELISA. In the colon, intestinal length and inflammatory indicators, such as IFN-γ, TNF-α, and IL-10, were measured. In the spleen, Th1 cells and Treg cells were measured by FACS (Fluorescence-Activated Cell Sorting).

[2] = system: animals with LPS-induced cognitive impairment; test: Animals with LPS-induced cognitive impairment: improvement effect in spleen; settings: LPS-treated mice, 1×10^9 CFU/mouse or sulfasalazine 50 mg/kg once a day for 5 days; for Foxp3 (fold change) / Tbet (fold change) / Tbet/Foxp3: spleen qPCR; for IFN-γ/IL-10 / IL-10 / Interferon (IFN)-γ / NK cell cytoxicity (%) / Phagocytosis (%) / TNF-α / TNF-α/IL-10: spleen
Method: as §2
mRNA was isolated from spleen tissue using the RNA Isolation Kit: RNeasy Mini Kit (QIAGEN), converted to cDNA, and qPCR was performed to measure the expression rates of Tbet, Foxp3, and glyceraldehyde 3-phosphate dehydrogenase (GAPDH). The reaction product was first treated at 95° C. for 30 seconds, followed by 38 cycles of 5 seconds at 95° C. and 30 seconds at 72° C. for analysis.
C57BL/6 male mice (5 weeks old, 19-21 g) were divided (6 mice in each group) and acclimatized to the laboratory for 1 week. To induce intestinal and brain diseases, mice were intraperitoneally administered Escherichia coli-derived LPS (10 μg/kg) once daily for 5 days. […] Experimental animals in the normal group were orally administered with a physiological saline solution, which was used to suspend lactic acid bacteria. The day following the conclusion of sample administration, the experimental animals were sacrificed, and samples from the brain hippocampus, colon, and spleen were collected. In the Hippocampus, inflammatory indicators, such as IFN-γ, TNF-α, and IL-10, were measured using ELISA. In the colon, intestinal length and inflammatory indicators, such as IFN-γ, TNF-α, and IL-10, were measured. In the spleen, Th1 cells and Treg cells were measured by FACS (Fluorescence-Activated Cell Sorting).

[3] = system: animals with antibiotic-induced gut microbiota imbalance; test: Animals with antibiotic (ampicillin)-induced gut microbiota imbalance: colitis improvement (colon); settings: ampicillin (AP)-treated mice, 1×10^9 CFU/mouse orally once a day for 5 days
Method: as §1, §2
(§3) C57BL/6 male mice (5 weeks old, 19-21 g) were divided (6 mice in each group) and acclimatized to the laboratory for 1 week. To induce intestinal and brain diseases, the mice were orally administered with ampicillin (AP, 100 mg/kg, dissolved in physiological saline) for 3 days. Meanwhile, the normal group was orally administered with 0.1 ml of physiological saline. […] The day following the conclusion of sample administration, the experimental animals were sacrificed, and samples from the brain hippocampus, colon, and spleen were collected. In the Hippocampus, inflammatory indicators, such as IFN-γ, TNF-α, and IL-10, were measured using ELISA. In the colon, intestinal length and inflammatory indicators, such as IFN-γ, TNF-α, and IL-10, were measured. In the spleen, Th1 cells and Treg cells were measured by FACS (Fluorescence-Activated Cell Sorting), and in feces, endotoxin (LPS) and gut microbial communities were measured.

[4] = system: animals with antibiotic-induced gut microbiota imbalance; test: Animals with antibiotic (ampicillin)-induced gut microbiota imbalance: cognitive improvement, hippocampus indicators; settings: ampicillin (AP)-treated mice, 1×10^9 CFU/mouse orally once a day for 5 days; for IFN-γ/IL-10 / IL-10 / Interferon (IFN)-γ / TNF-a/IL-10 / TNF-α: hippocampus
Method: as §2
The Y-shaped maze measurement device is shaped like an alphabetical Y with three arms extending from it, each arm being 25 cm long, 14 cm high, 5 cm wide, and positioned at the same angle. At the end of one arm of the Y-shaped maze, the animal was placed with its head facing out and allowed to freely navigate the arm for 8 minutes. The animal's movements were recorded, and reported as arm entries when the animal entered the arm with its hind paw, and the animal's movement was represented by an alternation, which was defined as one alternation when the animal passed through the three arms in succession. The amount of spontaneous alternation behavior was expressed as a percentage between the actual number of alternations and the maximum possible number of alternations (i.e., the total number of […] minus 2).
The experiment was conducted in a box (40×40×40 cm) made so that the outside could not be seen from the inside. Two objects (A, A′) of the same shape and size were fixedly disposed in a box and the mouse was relocated to start from the center of the box. Then, the number of times the mouse made contact with the two objects was recorded for 10 minutes. After 24 hours, one of the two objects was replaced with a new object (A, B). Then, one original object and one new object were prepared, and the animal's exploration time was measured.
as §3

Substance	Colon (cm) [1]	IFN-γ/IL-10 [1]	IL-10 [1]	Interferon (IFN)-γ [1]	MPO activity [1]	TNF-a/IL-10 [1]	TNF-α [1]	Foxp3 (fold change) [2]	Tbet (fold change) [2]	Tbet/Foxp3 [2]	IFN-γ/IL-10 [2]	IL-10 [2]	Interferon (IFN)-γ [2]	NK cell cytoxicity (%) [2]	Phagocytosis (%) [2]	TNF-α [2]	TNF-α/IL-10 [2]	Colon (cm) [3]	IFN-γ/IL-10 [3]	IL-10 [3]	further results
Lactobacillus rhamnosus NK210	4.98 cm	3.05	9.65 pg/mg	28.79 pg/mg	4.79 μUnit/mg	2.19	20.60 pg/mg	1.07 fold change	1.58 fold change	1.55	1.15	10.49 pg/mg	11.92 pg/mg	7.78%	36.01%	4.00 pg/mg	0.38	5.28 cm	0.31	21.31 pg/mg	Interferon (IFN)-γ [3]: 5.94 pg/mg; MPO activity [3]: 11.60 μUnit/mg; TNF-a/IL-10 [3]: 1.43; TNF-α [3]: 22.86 pg/mg; Exoporation (%) (in NOR task) [4]: 76.25%; Spontaneous alteration (%) (in Y-maze task) [4]: 73.01%; IFN-γ/IL-10 [4]: 0.47; IL-10 [4]: 48.89 pg/mg; Interferon (IFN)-γ [4]: 23.18 pg/mg; TNF-a/IL-10 [4]: 0.26; TNF-α [4]: 13.37 pg/mg
Bifidobacterium longum NK219	4.95 cm	3.32	13.00 pg/mg	38.64 pg/mg	4.62 μUnit/mg	2.12	26.73 pg/mg	1.32 fold change	1.27 fold change	1.05	1.32	8.71 pg/mg	11.29 pg/mg	6.93%	34.55%	4.00 pg/mg	0.47	5.45 cm	0.26	26.75 pg/mg	Interferon (IFN)-γ [3]: 5.84 pg/mg; MPO activity [3]: 14.76 μUnit/mg; TNF-a/IL-10 [3]: 1.16; TNF-α [3]: 28.27 pg/mg; Exoporation (%) (in NOR task) [4]: 83.21%; Spontaneous alteration (%) (in Y-maze task) [4]: 70.54%; IFN-γ/IL-10 [4]: 0.48; IL-10 [4]: 50.29 pg/mg; Interferon (IFN)-γ [4]: 24.33 pg/mg; TNF-a/IL-10 [4]: 0.28; TNF-α [4]: 12.43 pg/mg
